# Values quoted from earlier work as cited in patent EP3173487A1 (priority 2015, dated 2017).
# System: haloalkane dehalogenases
# Settings: pH 8.6
row,SMILES,classification as substrate of the analyzed haloalkane dehalogenases
1,ClC1CCCCC1 [chlorocyclohexane],poor
2,"CC(Cl)CCl (stereo not drawn) [1,2-dichloropropane]",poor
3,CCCCBr [1-bromobutane],universal
4,CCCI [1-iodopropane],universal
5,N#CCCCBr [4-bromobutanenitrile],universal
6,CCCCI [1-iodobutane],universal
7,"ClCC(Cl)CCl [1,2,3-trichloropropane]",poor
8,"BrCCBr [1,2-dibromoethane]",universal
9,BrCC1CCCCC1 [(bromomethyl)cyclohexane],poor
